Measured values reported in patent US7767677B2, “Heterocyclic derivatives and their use as stearoyl-CoA desaturase inhibitors” (Xenon Pharmaceuticals Inc., priority 2004, dated 2010).

Row | SMILES | melting point
1 | CCCCc1nc(-c2ccc(N3CCN(C(=O)c4ccccc4C(F)(F)F)CC3)nn2)no1 [Example 4.1, {4-[6-(5-butyl[1,2,4]oxadiazol-3-yl)pyridazin-3-yl]piperazin-1-yl}-(2-trifluoromethylphenyl)methanone] | 175 °C
2 | CCCCCc1noc(-c2ccc(N3CCN(C(=O)c4ccccc4C(F)(F)F)CC3)nn2)n1 [Example 7.1, {4-[6-(3-pentyl[1,2,4]oxadiazol-5-yl)pyridazin-3-yl]piperazin-1-yl}-(2-trifluoromethylphenyl)methanone] | 164 °C

Further lines, results first:

Row | melting point | SMILES
3 | 204 °C | CCc1nc(-c2ccc(N3CCN(C(=O)c4ccccc4C(F)(F)F)CC3)nn2)no1 [Example 4, {4-[6-(5-ethyl-[1,2,4]oxadiazol-3-yl)pyridazin-3-yl]piperazin-1-yl}-(2-trifluoromethylphenyl)methanone]
4 | 226 °C | CCCc1noc(-c2ccc(N3CCN(C(=O)c4ccccc4C(F)(F)F)CC3)nn2)n1 [Example 7, {4-[6-(3-propyl[1,2,4]oxadiazol-5-yl)pyridazin-3-YL]piperazin-1-yl}-(2-trifluoromethylphenyl)methanone]
5 | 122 to 125 °C | O=C(c1cc(F)ccc1C(F)(F)F)N1CCN(c2ccc(-c3ncc(-c4ccccc4)o3)nn2)CC1 [Example 12, (5-fluoro-2-trifluoromethylphenyl)-{4-[6-(5-phenyloxazol-2-yl)pyridazin-3-yl]piperazin-1-yl}methanone]
